The source of these data is patent publication US10538554B2, “Peptides and uses therefor as antiviral agents” (priority 2015, dated 2020).

Read-outs that look alike come from different tables or passages of the source. Bridge positions count the residues as written; N and C are the ends. Square brackets hold non-standard residues; d marks the D form. Peptide text beside a SMILES is read from it.

The test system of experiment [1] is H3N8 A/Miami/2/63. As to conditions: A/Miami/2/63, 48 h.
The subject of experiment [2] is H9N2 A/Iran/16/2000. As to conditions: 48 h.
The subject of experiment [3] is H1N1 A1/Malaysia/302/1954. The following applies: A1/Malaysia/302/1954, 48 h.
In experiment [4] the test system is H1N1 A/NY/18/2009. The following applies: A/NY/18/2009, 48 h, 10 μM.
In experiment [5] the test system is H3N2 A/HK/8/1968. As to conditions: A/HK/8/1968, 48 h.

As for `CC[C@@H](C)[C@H]1NC(=O)[C@@H](Cc2ccccc2)NC(=O)CNC(=O)[C@@H](Cc2ccccc2)NC(=O)[C@@H](Cc2c[nH]c3ccccc23)NC(=O)[C@@H]([C@H](C)O)NC(=O)[C@H](NC(=O)[C@H](CCCCN)NC(=O)[C@H](CCCCN)NC(=O)[C@H](CCCNC(=N)N)NC(=O)[C@@H](N)CCCNC(=N)N)CSSC[C@H](C(=O)O)NC(=O)[C@@H](CC(N)=O)NC1=O` [PSP IV A6, H-RRKKctwfGfinc-OH] (H-RRKK[dC][dT][dW][dF]G[dF][dI][dN][dC]-OH; disulfide 5-13), the “% inhibition H3N8” value in experiment [1] (10 μM) turned out to be 57%. In experiment [2] (10 μM), the “% inhibition H9N2” value is 35%. Further, the “% inhibition H1N1” value in experiment [3] (10 μM) came out at 59%. Further, the “% Inhibition Pdm 2009” value in experiment [4] was determined as 47%.
For `CC[C@@H](C)[C@H]1NC(=O)[C@@H](Cc2ccccc2)NC(=O)[C@@H](CC(N)=O)NC(=O)[C@@H](Cc2ccccc2)NC(=O)[C@@H](Cc2c[nH]c3ccccc23)NC(=O)[C@@H]([C@H](C)O)NC(=O)[C@H](NC(=O)[C@H](CCCCN)NC(=O)[C@H](CCCCN)NC(=O)[C@H](CCCNC(=N)N)NC(=O)[C@@H](N)CCCNC(=N)N)CSSC[C@H](C(=O)O)NC(=O)[C@@H](CC(N)=O)NC1=O` [PSP IV A12, H-RRKKctwfnfinc-OH] (H-RRKK[dC][dT][dW][dF][dN][dF][dI][dN][dC]-OH; disulfide 5-13), in that order: 56%, 48%, 67% and 60%.
On to `CC[C@@H](C)[C@H]1NC(=O)[C@@H](Cc2ccccc2)NC(=O)[C@@H](CCCNC(=N)N)NC(=O)[C@@H](Cc2ccc(O)cc2)NC(=O)[C@@H](Cc2c[nH]c3ccccc23)NC(=O)[C@@H]([C@H](C)O)NC(=O)[C@H](NC(=O)[C@H](CCCCN)NC(=O)[C@H](CCCCN)NC(=O)[C@H](CCCNC(=N)N)NC(=O)[C@@H](N)CCCNC(=N)N)CSSC[C@H](C(=O)O)NC(=O)[C@@H](CC(N)=O)NC1=O` [PSP III B20, H-RRKKctwyrfinc-OH] (H-RRKK[dC][dT][dW][dY][dR][dF][dI][dN][dC]-OH; disulfide 5-13), for which the “% inhibition H3N8” value in experiment [1] (50 μM) is 96%. For the same compound, the “% inhibition H9N2” value in experiment [2] (50 μM) stood at 86%. Besides, the “% inhibition H1N1” value in experiment [3] (50 μM) is recorded as 83%. Besides, the “% inhibition H3N2” value in experiment [5] (50 μM) is given as 100%.
Regarding `C[C@H](O)[C@H]1NC(=O)[C@H](N)CSSC[C@H](C(=O)O)NC(=O)[C@@H](CC(N)=O)NC(=O)[C@H]2CCCN2C(=O)[C@@H](Cc2ccccc2)NC(=O)[C@@H](CCCNC(=N)N)NC(=O)[C@@H](CO)NC(=O)[C@@H](CCCCN)NC1=O` [PSP 13, H-ctksrfpnc-OH] (H-[dC][dT][dK][dS][dR][dF][dP][dN][dC]-OH; disulfide 1-9), the “% inhibition H3N8” value in experiment [1] (500 μM) is 70.1%. In experiment [2] (500 μM), the “% inhibition H9N2” value is given as 18.2%. Besides, the “% inhibition H1N1” value in experiment [3] (500 μM) is listed as 32.7%. For the same compound, in experiment [5] (500 μM), the “% inhibition H3N2” value was found to be 29.6%.
With `CC[C@@H](C)[C@H]1NC(=O)[C@@H](Cc2ccccc2)NC(=O)[C@@H](CCCNC(=N)N)NC(=O)CNC(=O)[C@@H](Cc2c[nH]c3ccccc23)NC(=O)[C@@H]([C@H](C)O)NC(=O)[C@H](NC(=O)[C@H](CCCCN)NC(=O)[C@H](CCCCN)NC(=O)[C@H](CCCNC(=N)N)NC(=O)[C@@H](N)CCCNC(=N)N)CSSC[C@H](C(=O)O)NC(=O)[C@@H](CC(N)=O)NC1=O` [PSP III B6, H-RRKKctwGrfinc-OH] (H-RRKK[dC][dT][dW]G[dR][dF][dI][dN][dC]-OH; disulfide 5-13), the “% inhibition H3N8” value in experiment [1] (50 μM) is on record as 96%. The “% inhibition H9N2” value in experiment [2] (50 μM) is listed as 93%. The “% inhibition H1N1” value in experiment [3] (50 μM) was 85%. In addition, the “% inhibition H3N2” value in experiment [5] (50 μM) is recorded as 100%.
The matching figures for `CC[C@@H](C)[C@H]1NC(=O)[C@@H](Cc2ccccc2)NC(=O)[C@@H](CCCNC(=N)N)NC(=O)[C@@H](CCCCN)NC(=O)[C@@H](Cc2c[nH]c3ccccc23)NC(=O)[C@@H]([C@H](C)O)NC(=O)[C@H](NC(=O)[C@H](CCCCN)NC(=O)[C@H](CCCCN)NC(=O)[C@H](CCCNC(=N)N)NC(=O)[C@@H](N)CCCNC(=N)N)CSSC[C@H](C(=O)O)NC(=O)[C@@H](CC(N)=O)NC1=O` [PSP III B9, H-RRKKctwkrfinc-OH] (H-RRKK[dC][dT][dW][dK][dR][dF][dI][dN][dC]-OH; disulfide 5-13): 96%, 90%, 90% and 96%.
For `CC[C@@H](C)[C@H]1NC(=O)[C@@H](Cc2ccccc2)NC(=O)[C@@H](CCCNC(=N)N)NC(=O)[C@@H](CC(=O)O)NC(=O)[C@@H](Cc2c[nH]c3ccccc23)NC(=O)[C@@H]([C@H](C)O)NC(=O)[C@H](NC(=O)[C@H](CCCCN)NC(=O)[C@H](CCCCN)NC(=O)[C@H](CCCNC(=N)N)NC(=O)[C@@H](N)CCCNC(=N)N)CSSC[C@H](C(=O)O)NC(=O)[C@@H](CC(N)=O)NC1=O` [PSP III B3, H-RRKKctwdrfinc-OH] (H-RRKK[dC][dT][dW][dD][dR][dF][dI][dN][dC]-OH; disulfide 5-13), in that order: 43%, 20%, 12% and 83%.
For `CC[C@@H](C)[C@H]1NC(=O)[C@@H](Cc2ccccc2)NC(=O)[C@@H](CCCNC(=N)N)NC(=O)[C@@H](CS)NC(=O)[C@@H](Cc2c[nH]c3ccccc23)NC(=O)[C@@H]([C@H](C)O)NC(=O)[C@H](NC(=O)[C@H](CCCCN)NC(=O)[C@H](CCCCN)NC(=O)[C@H](CCCNC(=N)N)NC(=O)[C@@H](N)CCCNC(=N)N)CSSC[C@H](C(=O)O)NC(=O)[C@@H](CC(N)=O)NC1=O` [PSP III B2, H-RRKKctwcrfinc-OH] (H-RRKK[dC][dT][dW][dC][dR][dF][dI][dN][dC]-OH; disulfide 5-13), in that order: 87%, 74%, 71% and 96%.
In the case of `CC[C@@H](C)[C@H]1NC(=O)[C@@H](Cc2ccccc2)NC(=O)[C@@H](CCCNC(=N)N)NC(=O)[C@@H](CCSC)NC(=O)[C@@H](Cc2c[nH]c3ccccc23)NC(=O)[C@@H]([C@H](C)O)NC(=O)[C@H](NC(=O)[C@H](CCCCN)NC(=O)[C@H](CCCCN)NC(=O)[C@H](CCCNC(=N)N)NC(=O)[C@@H](N)CCCNC(=N)N)CSSC[C@H](C(=O)O)NC(=O)[C@@H](CC(N)=O)NC1=O` [PSP III B11, H-RRKKctwmrfinc-OH] (H-RRKK[dC][dT][dW][dM][dR][dF][dI][dN][dC]-OH; disulfide 5-13), the “% inhibition H3N8” value in experiment [1] (50 μM) was 96%. In addition, the “% inhibition H9N2” value in experiment [2] (50 μM) is 93%. In addition, the “% inhibition H1N1” value in experiment [3] (50 μM) came to 94%. Also, the “% inhibition H3N2” value in experiment [5] (50 μM) was determined as 100%.
On to `C[C@H](O)[C@H]1NC(=O)[C@H](N)CSSC[C@H](C(=O)O)NC(=O)[C@@H](CC(N)=O)NC(=O)[C@@H](CC(=O)O)NC(=O)[C@@H](Cc2ccccc2)NC(=O)[C@@H](CCCNC(=N)N)NC(=O)[C@@H](CO)NC(=O)[C@@H](CCCCN)NC1=O` [PSP 3, H-ctksrfdnc-OH] (H-[dC][dT][dK][dS][dR][dF][dD][dN][dC]-OH; disulfide 1-9), for which the “% inhibition H3N8” value in experiment [1] (500 μM) worked out at 67%. The “% inhibition H9N2” value in experiment [2] (500 μM) is given as greater than 50%. For the same compound, in experiment [3] (500 μM), the “% inhibition H1N1” value is 29.4%. For the same compound, in experiment [5] (500 μM), the “% inhibition H3N2” value is given as 74.1%.
